From patent US6423855B1, “Cytoprotective compounds” (Virginia Commonwealth University, priority 1996, dated 2002)
Converted amounts (≈) assume the structure as drawn. Like-named read-outs stand apart in the source and are kept apart here.

Key:
solubility in water = assay type: physicochemical
Experimental: To 6.22 g (20.8 mmol) of ricinoleic acid and 4.00 g of triethylamine in 150 mL THF was added 2.31 g (9.0 mmol) of ethylenediamine tetraacetic acid dianhydride. After stirring 15 min at 40° C., 20 mL of acetonitrile was added, since ethylenediamine tetraacetic acid dianhydride was not dissolved completely. The solution was stirred for 72 h under reflux and gradually turned yellow during this time. The solvent was removed under reduced pressure. The mixture was suspended in 100 mL of ether and extracted twice with 50 mL of saturated aqueous sodium chloride. After drying the ether solution, the solvent was removed under reduced pressure. The residue was suspended in methanol and filtered. The solvent was removed under reduced pressure. The residual oil was purified by chromatography on silica gel, eluted with a gradient of acetone/methanol (70:30 v/v to 0:100 v/v). N,N-bis(oleic acid-12-oxycarbonylmethyl)-N-N′-bis(carboxylmethyl) ethylenediamine was isolated as a yellow solid with a yield of 1.23 g (14%).

[1] = system: PLA2 activities derived from human platelets and human polymorphonuclear leukocytes (PMNs); assay: in vitro PLA2 activities from human platelets and PMNs; assay type: biochemical; conditions: unesterified cis-unsaturated fatty acids
Source text: Oxidation of the sarcoplasmic reticulum of muscle and of phospholipid membranes predisposes them to phospholipase degradation. Phospholipid membranes that have been oxidized at particular sites may appear intact and maintain functional activity, but their oxidation makes them vulnerable to degradation and destruction by PLA2 or other phospholipases from endogenous or exogenous sources.

clone W2 (P.falciparum) = assay: 3H-hypoxanthine incorporation, P.falciparum clone W2; assay type: cell-based; conditions: Plasmodium falciparum
clone D6 (P. falciparum) = assay: 3H-hypoxanthine incorporation, P.falciparum clone D6; assay type: cell-based; conditions: Plasmodium falciparum
epidermis cell turnover = assay: cell turnover rate (dansyl chloride); assay type: in vivo, human
Experimental: Two PX compounds PX-11 and PX-13 were evaluated in a cream formulation prepared under GMP. The chemicals were formulated into a bland cream and evaluated in the following human or mouse skin tests: (1) occluded patch test for irritation; (2) cell turnover rate; (3) transepidermal water loss; (4) skin moisturization; and (5) reduction in erythema after induced sunburn. The human skin tests were conducted on three volunteer female subjects, ages 29-32; a cream base with no added active was included as a control, while the untreated skin served as an additional basis for evaluation. Sunburn tests were performed on a total of 30 hairless albino mice. 2. Cell turnover rate: This parameter was measured by adsorption of dansyl chloride, in which 3% dansyl chloride was incorporated into petrolatum. This salve was applied over a 2.5 cm diameter circular area in the upper arm and a patch applied. 24 hours later the patch was removed. The intensity of dansyl chloride fluorescence was indicative of the cell turnover rate in the epidermis.

epidermal layer = assay: transepidermal water loss; assay type: in vivo, human
Experimental: (§1) Two PX compounds PX-11 and PX-13 were evaluated in a cream formulation prepared under GMP. The chemicals were formulated into a bland cream and evaluated in the following human or mouse skin tests: (1) occluded patch test for irritation; (2) cell turnover rate; (3) transepidermal water loss; (4) skin moisturization; and (5) reduction in erythema after induced sunburn. The human skin tests were conducted on three volunteer female subjects, ages 29-32; a cream base with no added active was included as a control, while the untreated skin served as an additional basis for evaluation. Sunburn tests were performed on a total of 30 hairless albino mice. 3. Transepidermal water loss. This parameter was measured by affixing a flow cell on the forearm site, applying the cream, waiting 20 minutes, then flushing the volume with nitrogen and noting the moisture content of the effluent gases.

outer skin layers = assay: skin moisturization (20 megahertz ultrasound); assay type: in vivo, human; conditions: for Ultrasound Density Score: 30 minutes after application
Experimental: as §1, with “4. Skin moisturization. Skin moisturization” for “3. Transepidermal water loss. This parameter”, “using 20 megahertz ultrasound (the presence of moisture produces” for “by affixing”, “density decrease in” for “flow cell on”, “outer skin layers), before and 30 minutes after product application to” for “forearm site, applying”, “forearm.” for “cream, waiting 20 minutes, then flushing the volume with nitrogen and noting the moisture content of the effluent gases.”

[2] = system: ultraviolet-induced erythema; assay: protection against ultraviolet-induced erythema; assay type: in vivo, hairless albino mice
Experimental: The human skin tests were conducted on three volunteer female subjects, ages 29-32; a cream base with no added active was included as a control, while the untreated skin served as an additional basis for evaluation. Sunburn tests were performed on a total of 30 hairless albino mice.
5.Protection against ultraviolet-induced ervthema. The protection against ultraviolet-induced erythema (i.e., the burn and irritation produced after exposure to ultraviolet radiation), was measured by first irradiating 12 mice with destructive 3130 angstrom (Å) rays, applying the creams, and then evaluating the skin cells for erythema.

For `CCCCCCC(CC=CCCCCCCCC(=O)O)OC(=O)CN(CCN(CC(=O)O)CC(=O)OC(CC=CCCCCCCCC(=O)O)CCCCCC)CC(=O)O` (centres unmarked) [N,N-Bis(oleic acid-12-oxycarbonylmethyl)-N-N′bis(carboxylmethyl) ethylenediamine], the solubility in water (solubility in water) was “readily soluble in water”.

For `CCCCC/C=C\C/C=C\C/C=C\C/C=C\CCCC(=O)O` [arachidonic acid], the “inhibition of in vitro PLA2 activity” value [1] was “inhibited”.

`CCN(CC)CCCC(C)Nc1ccnc2cc(Cl)ccc12` (centres unmarked) [chloroquine] gave an IC50 (clone W2 (P.falciparum); W2, read-out: IC50 growth) of 30 ng/mL (≈ 93.8 nM) and an IC50 (clone D6 (P. falciparum); D6, read-out: IC50 growth) of 1.6 ng/mL (≈ 5 nM).

With `CCCCC/C=C\C/C=C\CCCCCCCC(=O)O` [linoleic acid] the “inhibition of in vitro PLA2 activity” value [1] was “inhibited”.

For `OC(c1cc(C(F)(F)F)nc2c(C(F)(F)F)cccc12)C1CCCCN1` (centres unmarked) [mefloquine], the IC50 (clone W2 (P.falciparum); printed as control cultures sensitive to both drugs, compared with clone W2, read-out: IC50 growth) was 1.3 ng/mL (≈ 3.44 nM) and the IC50 (clone D6 (P. falciparum); printed as control cultures sensitive to both drugs, compared with clone D6, read-out: IC50 growth) was 4.3 ng/mL (≈ 11.4 nM).

With `CCCCCCCC/C=C\CCCCCCCC(=O)O` [oleic acid] the “inhibition of in vitro PLA2 activity” value [1] was “inhibited”.

With tricinyl trioleate [PX-11] the “Days to Cell Renewal Treated” value (epidermis cell turnover; cream-treated skin, upper arm) was 28.8 days, the “% Change in Cell Turnover Time” value (epidermis cell turnover; treated vs untreated skin) was “+34%” and the “% Change in Transepidermal Water Loss” value (epidermal layer; forearm, 20 minutes after applying cream) was “+649.0%”. The “effect on water loss from the epidermal layer” value (epidermal layer; in vivo) was “opened the pores and permitted water to escape”, the “effectiveness at promoting water loss vs control” value (epidermal layer; relative to control cream) was 10 times and the “Ultrasound Density Score” value (outer skin layers; Subject 1, 7 = Best, 1 = Baseline) was 3. The “Ultrasound Density Score” value (outer skin layers; Subject 2) was 3, the “Ultrasound Density Score” value (outer skin layers; Subject 3) was 1 and the “Ultrasound Density Score Total” value (outer skin layers; Total of 3 subjects, 7 = Best, 1 = Baseline) was 7. The “moisturization properties” value (outer skin layers; in vivo) was “good moisturization properties”, the “Post-Radiation Erythema Ranking Mean” value ([2]; Mean, 1 = Best, 4 = Worst) was 2 and the “Post-Radiation Erythema Ranking” value ([2]; Subject 1, 1 = Best, 4 = Worst) was 2. For the same compound, the “Post-Radiation Erythema Ranking” value ([2]; Subject 2, 1 = Best, 4 = Worst) was 2, the “Post-Radiation Erythema Ranking” value ([2]; Subject 3, 1 = Best, 4 = Worst) was 2 and the “erythema reduction vs base cream” value ([2]; mouse, in vivo) was “significantly better than the base cream”.
